What was measured:
[1] = system: H2087-TLISSLMPI (SEQ ID NO: 2) subcutaneous tumor; test: DC peptide vaccine in H2087-[…] subcutaneous tumor model; format: in vivo, NOD/SCID mice; details: DC loaded with peptide, intracutaneous, 2 injections; vs DC loaded with wild-type peptide
Experimental: 600-900 ml of anticoagulated peripheral blood was collected from healthy volunteers for isolating peripheral blood mononuclear cells (PBMCs) via Ficoll. Cells were collected for use. 2×10^7 PBMCs per 0.5 ml was intraperitoneally injected into each of 300 NOD SCID mice without immune leakage to perform human immune reconstitution in NOD SCID mice. After 4 weeks, the mice were selected to be inoculated with the human lung cancer cell line.
The human non-small cell lung adenocarcinoma cell line H2087-[…] (SEQ ID NO: 2) as established in Example 7 was cultured in DMEM medium containing 10% fetal bovine serum, 100 U/mL penicillin and 100 U/mL streptomycin in an incubator at 37° C., 5% CO2. H2087-[…] […] The long diameter a and the short diameter b of the tumor were measured with a vernier caliper every 2-3 days and the size of the tumor was calculated as a*b*b/2. The mice and tumors were weighed and recorded every day. […] The tumor volume and the survival rate of mice were recorded every 2 days. […]
Tumor-bearing mice were randomly divided into 7 groups: DC loaded with wild-type peptide group, DC loaded with the mutant peptide […] […] After injection, vital signs of the mice were observed, and the vertical and horizontal dimensions of tumors were measured with a vernier caliper every two days. Tumor volume was calculated as follows: tumor volume=½×length×width^2. […]

[2] = system: T2 cells; test: LDH release assay, killing of peptide-loaded T2 target cells by CD8+ T cells; format: cell-based, human; details: for Killing efficiency: 4 h
Experimental: The cells cultured in Example 3 were co-cultured with T2 cells loaded with the mutant peptides of the present invention or the wild-type peptide or without a peptide. A maximum release well, a volume correction well, a medium control well, a spontaneous release well and control wells for example at different effector-to-target ratios (ratios of T cells to T2 cells) were set in this experiment. Three replicate wells were set for each group. After 4 h, 50 μl of the co-culture supernatant was taken out and added to 50 μl of LDH substrate mixture to catalyze the reaction of LDH substrate. Finally, the plates were read at a wavelength of 490 nm, with a reference wavelength of 680 nm, and the killing activity against target cells T2 was calculated based on the control wells.
The formula for calculating the killing activity is: Killing efficiency (%)=(test well−spontaneous release of effector cells−spontaneous release of target cells+medium well)/(maximum release of target cells−volume correction well−spontaneous release of target cells+medium well)×100%

Sequence: TLISSLMPI [tumor antigen peptide from CACNA1H mutation, position 1428 arginine to methionine]
- Survival period of mice [1]: significantly prolonged survival period of mice
- Tumor growth [1]: slowed down tumor growth in mice
- Killing efficiency ([2]; effector-to-target ratio 1:1, target T2 loaded with TLISSLMPI): 7.96%
- Killing efficiency ([2]; effector-to-target ratio 1:1, target T2 loaded with wild-type TLISSLRPI): 2.23%
- Killing efficiency ([2]; effector-to-target ratio 10:1, target T2 loaded with TLISSLMPI): 38.89%
- Killing efficiency ([2]; effector-to-target ratio 10:1, target T2 loaded with wild-type TLISSLRPI): 4.23%
- Specific killing of target cells (in words) ([2]; effector-to-target ratio of 1:1 or 1:10 as printed): capable of killing T2 cells presenting the mutant peptide, but not the T2 cells presenting a wild-type peptide

— US11548925B2, “CACNA1H-derived tumor antigen polypeptide and use thereof” (Genoimmune Therapeutics Co., Ltd., priority 2016, dated 2023)
